The record followed here is PMC11233931, “Remodeling tumor‐associated macrophage for anti‐cancer effects by rational design of irreversible inhibition of mitogen‐activated protein kinase‐activated protein kinase 2” (MedComm, 2024).

Common to all, as to assay: Eurofins kinase selectivity profile against 380 other human recombinant kinases (Table S2)
Common to all, as to format: biochemical

The target of assay [1] is T1, 380 human recombinant protein kinases (Homo sapiens, UniProt P17612).
T1 construct: purchased Eurofins (Celle Lévescault)
The following applies: PKA(h), read-out: Inhibition rate. The method in brief:
(§1)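 Selectivity panel of 380 human recombinant protein kinases, screened by Eurofins at a range of concentrations.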

The target of assay [2] is T2, 380 human recombinant protein kinases (Homo sapiens, UniProt Q9HBY8).
T2 construct: purchased Eurofins (Celle Lévescault)
T2 sequence (Q9HBY8 1-367): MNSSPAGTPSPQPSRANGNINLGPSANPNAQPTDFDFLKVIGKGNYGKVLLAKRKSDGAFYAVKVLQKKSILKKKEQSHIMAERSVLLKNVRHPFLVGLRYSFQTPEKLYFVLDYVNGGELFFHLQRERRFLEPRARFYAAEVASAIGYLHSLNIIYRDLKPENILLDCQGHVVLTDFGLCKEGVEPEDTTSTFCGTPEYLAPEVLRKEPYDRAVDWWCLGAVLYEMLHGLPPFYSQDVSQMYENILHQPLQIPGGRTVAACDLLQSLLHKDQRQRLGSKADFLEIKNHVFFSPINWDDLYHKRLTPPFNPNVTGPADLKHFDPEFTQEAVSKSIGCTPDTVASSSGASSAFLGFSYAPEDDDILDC
The note with it: SGK2(h), read-out: Inhibition rate (%). The method in brief:
as §1

The target of assay [3] is T3, 380 human recombinant protein kinases (Homo sapiens, UniProt Q8IYT8).
T3 construct: purchased Eurofins (Celle Lévescault)
T3 sequence (Q8IYT8 1-1036): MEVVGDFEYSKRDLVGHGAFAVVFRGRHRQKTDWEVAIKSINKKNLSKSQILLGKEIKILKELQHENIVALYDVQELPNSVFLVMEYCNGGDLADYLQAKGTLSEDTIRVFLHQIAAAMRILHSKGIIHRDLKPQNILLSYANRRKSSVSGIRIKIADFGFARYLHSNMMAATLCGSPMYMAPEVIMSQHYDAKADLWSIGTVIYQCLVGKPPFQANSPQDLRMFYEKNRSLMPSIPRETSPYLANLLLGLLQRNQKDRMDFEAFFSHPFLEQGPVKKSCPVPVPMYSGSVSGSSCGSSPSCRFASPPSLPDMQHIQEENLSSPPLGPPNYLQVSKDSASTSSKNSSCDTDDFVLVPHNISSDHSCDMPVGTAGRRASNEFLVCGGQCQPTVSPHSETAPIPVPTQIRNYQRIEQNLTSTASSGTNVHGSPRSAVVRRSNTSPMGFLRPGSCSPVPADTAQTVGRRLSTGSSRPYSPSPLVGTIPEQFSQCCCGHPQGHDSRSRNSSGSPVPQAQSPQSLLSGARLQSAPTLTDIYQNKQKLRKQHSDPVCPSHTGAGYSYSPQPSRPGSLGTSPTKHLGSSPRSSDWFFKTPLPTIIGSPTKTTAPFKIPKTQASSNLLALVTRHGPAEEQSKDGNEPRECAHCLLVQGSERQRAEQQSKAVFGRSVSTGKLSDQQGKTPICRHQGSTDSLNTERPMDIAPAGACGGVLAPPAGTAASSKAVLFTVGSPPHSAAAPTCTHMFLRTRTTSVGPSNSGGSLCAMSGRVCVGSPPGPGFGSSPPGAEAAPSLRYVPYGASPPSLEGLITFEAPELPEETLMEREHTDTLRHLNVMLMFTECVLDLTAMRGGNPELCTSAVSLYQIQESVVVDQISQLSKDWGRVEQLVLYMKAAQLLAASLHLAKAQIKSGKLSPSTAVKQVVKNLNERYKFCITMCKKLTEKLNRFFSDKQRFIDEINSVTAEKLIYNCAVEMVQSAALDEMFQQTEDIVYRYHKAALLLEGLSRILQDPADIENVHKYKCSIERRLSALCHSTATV
The note with it: ULK2(h), read-out: Inhibition rate (%). The method in brief: as §1

The target of assay [4] is T4, 380 human recombinant protein kinases (Homo sapiens, UniProt O15111).
T4 construct: purchased Eurofins (Celle Lévescault)
T4 sequence (O15111 1-745): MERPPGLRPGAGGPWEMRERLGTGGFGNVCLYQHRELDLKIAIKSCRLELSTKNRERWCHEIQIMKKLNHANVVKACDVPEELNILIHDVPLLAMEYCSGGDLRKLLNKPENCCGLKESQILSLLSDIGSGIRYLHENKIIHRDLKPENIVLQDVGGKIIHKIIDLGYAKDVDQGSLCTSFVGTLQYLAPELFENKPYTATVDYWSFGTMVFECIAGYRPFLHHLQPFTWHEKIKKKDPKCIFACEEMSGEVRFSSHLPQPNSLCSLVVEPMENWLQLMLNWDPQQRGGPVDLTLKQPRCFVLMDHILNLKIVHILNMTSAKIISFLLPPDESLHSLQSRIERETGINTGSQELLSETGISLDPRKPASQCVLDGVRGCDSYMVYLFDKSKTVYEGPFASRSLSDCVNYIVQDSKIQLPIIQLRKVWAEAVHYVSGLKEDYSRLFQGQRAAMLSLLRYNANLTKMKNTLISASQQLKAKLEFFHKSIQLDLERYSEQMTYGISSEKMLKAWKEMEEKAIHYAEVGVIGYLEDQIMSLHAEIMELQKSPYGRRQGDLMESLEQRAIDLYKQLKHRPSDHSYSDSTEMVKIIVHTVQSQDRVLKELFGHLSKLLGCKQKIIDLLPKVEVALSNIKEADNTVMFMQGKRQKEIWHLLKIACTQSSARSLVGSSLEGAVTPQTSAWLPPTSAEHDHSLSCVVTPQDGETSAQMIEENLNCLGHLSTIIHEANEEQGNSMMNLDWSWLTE
The following applies: IKKα(h), read-out: Inhibition rate. In short, it runs like this: as §1

In general, inhibition refers to the relative decrease from the control value, in per cent. For `C=CC(=O)Nc1cc(-c2cc(-c3cc4c([nH]3)CCNC4=O)ccn2)ccc1OC(F)(F)F` [compound 11], the inhibition at 0.01 µM is -7% in assay [1] (10 nM), -10% in assay [2] (10 nM), 6% in assay [3] (10 nM) and -15% in assay [4] (10 nM). For the same compound, the inhibition at 0.1 µM is -7% in assay [1] (100 nM), -7% in assay [2] (100 nM), 6% in assay [3] (100 nM) and -14% in assay [4] (100 nM). Also, the inhibition at 1 µM is -6% in assay [1] (1000 nM), 0% in assay [2] (1000 nM), 5% in assay [3] (1000 nM) and -5% in assay [4] (1000 nM).
